Assay results as given in the RepoRT retention time repository (doi:10.1007/s11306-014-0638-x).

Experiment: RP, Waters ACQUITY UPLC HSS T3, 150 × 2.1 mm, 1.8 µm, 40 °C, 0.28 mL/min, estimated dead time 1.2 min; A: water + 0.1% formic acid, pH 3; B: methanol + 0.1% formic acid, pH 3; gradient (min/%B) 0/0 1/0 3/10 18/40 21/100 25.5/100 25.6/0 28/0
Settings: stereoisomer not certain

| Compound | LC retention time |
| --- | --- |
| O=C(O)c1ccc(O)c(O)c1 [3,4-dihydroxybenzoic acid] | 7.77 min |
| O=C(O)c1cc(O)cc(O)c1 [3,5-dihydroxybenzoic acid] | 7.75 min |
| O=C(O)c1ccc(O)cc1 [4-hydroxybenzoic acid] | 10.6 min |
| NC(CCC(=O)NC(CS)C(=O)NCC(=O)O)C(=O)O [L-glutathione] | 1.7 min |
| CC[C@H](C)[C@H](N)C(=O)O [L-isoleucine] | 4.44 min |
| O=C(O)[C@@H]1CCCN1 [L-proline] | 1.51 min |
| O=C(O)[C@H](O)[C@@H](O)C(=O)O [L-tartaric acid] | 1.46 min |
| N[C@@H](Cc1ccc(O)cc1)C(=O)O [L-tyrosine] | 4.28 min |
| OCC1OC(Oc2cc(O)cc(C=Cc3ccc(O)c(O)c3)c2)C(O)C(O)C1O (stereo not given) [astringin] | 14.2 min |
| O=C1CC(c2ccc(O)c(O)c2)c2c(cc(O)c3c2OC(c2ccc(O)c(O)c2)C(O)C3)O1 (stereo not given) [caffeic acid+catechin condensation product] | 17.8 min |
| O=C(C=Cc1ccc(O)c(O)c1)OC(C(=O)O)C(O)C(=O)O (stereo not given) [caftaric acid] | 8.53 min |
| OCC1OC(Oc2cc(O)cc(C=Cc3ccc(O)cc3)c2)C(O)C(O)C1O (stereo not drawn) [cis-piceid] | 18.4 min |
| Oc1ccc(/C=C\c2cc(O)cc(O)c2)cc1 [cis-resveratrol] | 20.4 min |
| CC(O)(CC(=O)O)C(=O)O (stereo not given) [citramalic acid] | 4.02 min |
| O=c1oc2c(O)c(O)cc3c(=O)oc4c(O)c(O)cc1c4c23 [ellagic acid] | 20.3 min |
| Oc1ccc(C2Oc3cc(O)cc(O)c3CC2O)cc1 (stereo not given) [epiafzelechin] | 15.6 min |
| O=C(OC1Cc2c(O)cc(O)cc2OC1c1ccc(O)c(O)c1)c1cc(O)c(O)c(O)c1 (stereo not given) [epicatechin gallate] | 16 min |
| Oc1cc(O)c2c(c1)OC(c1ccc(O)c(O)c1)C(O)C2 (stereo not given) [epicatechin] | 12.1 min |

| Compound | LC retention time |
| --- | --- |
| O=C(OC1Cc2c(O)cc(O)cc2OC1c1cc(O)c(O)c(O)c1)c1cc(O)c(O)c(O)c1 (stereo not given) [epigallo-catechin gallate] | 12.7 min |
| CCOC(=O)c1cc(O)c(O)c(O)c1 [ethyl gallate] | 15.2 min |
| COc1cc(C=CC(=O)OC(C(=O)O)C(O)C(=O)O)ccc1O (stereo not given) [fertaric acid] | 11.8 min |
| COc1cc2ccc(=O)oc2c(OC2OC(CO)C(O)C(O)C2O)c1O (stereo not given) [fraxin] | 12.6 min |
| Oc1cc(O)c2c(c1)OC(c1cc(O)c(O)c(O)c1)C(O)C2 (stereo not given) [gallocatechin] | 8.68 min |
| COc1ccc(C2CC(=O)c3c(O)cc(O)cc3O2)cc1O (stereo not given) [hesperetin] | 21.1 min |
| Oc1ccc(C2Oc3cc(O)cc4c3C2c2cc(O)cc(O)c2C(c2ccc(O)cc2)C4C2c3cc(O)cc4c3C(c3cc(O)cc(O)c3C2c2ccc(O)cc2)C(c2ccc(O)cc2)O4)cc1 (stereo not given) [isohopeaphenol] | 10.7 min |
| COc1cc(-c2oc3cc(O)cc(O)c3c(=O)c2OC2OC(CO)C(O)C(O)C2O)ccc1O (stereo not given) [isorhamnetin 3-glucoside] | 20.5 min |
| COc1cc(-c2oc3cc(O)cc(O)c3c(=O)c2OC2OC(COC3OC(C)C(O)C(O)C3O)C(O)C(O)C2O)ccc1O (stereo not given) [isorhamnetin 3-rutinoside] | 20.6 min |
| COc1cc(C=Cc2cc(O)cc(OC3OC(CO)C(O)C(O)C3O)c2)ccc1O (stereo not given) [isorhapontin] | 17.6 min |
| O=c1c(OC2OC(CO)C(O)C(O)C2O)c(-c2ccc(O)cc2)oc2cc(O)cc(O)c12 (stereo not given) [kaempferol 3-glucoside] | 20.3 min |
| CC1OC(OCC2OC(Oc3c(-c4ccc(O)cc4)oc4cc(O)cc(O)c4c3=O)C(O)C(O)C2O)C(O)C(O)C1O (stereo not given) [kaempferol 3-rutinoside] | 20.5 min |
| O=c1cc(-c2ccc(O)c(O)c2)oc2cc(OC3OC(CO)C(O)C(O)C3O)cc(O)c12 (stereo not given) [luteolin 7-glucoside] | 19.7 min |
| COC(=O)c1cc(O)c(O)c(O)c1 [methyl gallate] | 10.7 min |
| COc1cc(-c2oc3cc(=O)cc4oc(C)cc(c2OC2OC(CO)C(O)C(O)C2O)c43)cc(OC)c1O (stereo not given) [methylpyrano malvidin 3-glucoside] | 19.7 min |
| O=C1CC(c2ccc(O)cc2)Oc2cc(OC3OC(CO)C(O)C(O)C3O)cc(O)c21 (stereo not given) [naringenin 7-glucoside] | 19.5 min |
| O=C1CC(c2ccc(O)cc2)Oc2cc(O)cc(O)c21 (stereo not given) [naringenin] | 21 min |
| O=C(O)C=Cc1ccccc1O [o-coumaric acid] | 19.7 min |

Other lines, results leading:

| LC retention time | Compound |
| --- | --- |
| 20.7 min | COc1cc(-c2oc3cc(=O)cc4oc(O)cc(c2OC2OC(CO)C(O)C(O)C2O)c43)cc(OC)c1O (stereo not given) [oxovitisin A] |
| 17.6 min | Oc1ccc(C2c3c(O)cc(O)cc3C3C(c4ccc(O)cc4)c4c(O)cc(O)cc4C23)cc1 (stereo not given) [pallidol] |
| 19.4 min | CCOc1ccc(NC(C)=O)cc1 [phenacetin] |
| 21.1 min | O=C(CCc1ccc(O)cc1)c1c(O)cc(O)cc1O [phloretin] |
| 20.2 min | O=C(CCc1ccc(O)cc1)c1c(O)cc(O)cc1OC1OC(CO)C(O)C(O)C1O (stereo not given) [phloridzin] |
| 9.66 min | Oc1cc(O)c2c(c1)OC(c1ccc(O)c(O)c1)C(O)C2c1c(O)cc(O)c2c1OC(c1ccc(O)c(O)c1)C(O)C2 (stereo not given) [procyanidin B1] |
| 3.95 min | CCC(=O)O [proprionic acid] |
| 21.9 min | COc1cc(C=Cc2ccc(O)cc2)cc(OC)c1 [pterostilbene] |
| 17.4 min | O=c1c(OC2OC(CO)C(O)C(O)C2O)c(-c2ccc(OC3OC(CO)C(O)C(O)C3O)c(O)c2)oc2cc(O)cc(O)c12 (stereo not given) [quercetin 3,4'-diglucoside] |
| 20 min | O=c1c(OC2OC(C(O)CO)C(O)C2O)c(-c2ccc(O)c(O)c2)oc2cc(O)cc(O)c12 (stereo not given) [quercetin 3-glucoside] |
| 19.9 min | O=C(O)C1OC(Oc2c(-c3ccc(O)c(O)c3)oc3cc(O)cc(O)c3c2=O)C(O)C(O)C1O (stereo not given) [quercetin 3-glucuronide] |
| 20 min | CC1OC(OCC2OC(Oc3c(-c4ccc(O)c(O)c4)oc4cc(O)cc(O)c4c3=O)C(O)C(O)C2O)C(O)C(O)C1O (stereo not given) [quercetin 3-rutinoside] |
| 20.1 min | O=c1c(OS(=O)(=O)O)c(-c2ccc(O)c(O)c2)oc2cc(O)cc(O)c12 [quercetin 3-sulfate] |
| 20.4 min | O=c1c(O)c(-c2ccc(OC3OC(CO)C(O)C(O)C3O)c(O)c2)oc2cc(O)cc(O)c12 (stereo not given) [quercetin 4'-glucoside] |
| 1.58 min | O=C(O)C1(O)CC(O)C(O)C(O)C1 (stereo not given) [quinic acid] |
| 3.94 min | O=C(O)CCC(=O)O [succinic acid] |
| 13.8 min | COc1cc(C(=O)O)cc(OC)c1O [syringic acid] |
| 16.8 min | O=C1c2c(O)cc(O)cc2OC(c2ccc(O)c(O)c2)C1O (stereo not given) [taxifolin] |
| 10.7 min | O=C(C=Cc1ccc(O)cc1)OC(C(=O)O)C(O)C(=O)O (stereo not drawn) [trans coutaric acid] |
| 2.34 min | O=c1cc[nH]c(=O)[nH]1 [uracil] |
| 3.44 min | O=c1[nH]c(=O)c2[nH]c(=O)[nH]c2[nH]1 [uric acid] |
| 19.3 min | COc1cc(-c2oc3cc(=O)cc4oc(O)c(C=[OH+])c(c2OC2OC(CO)C(O)C(O)C2O)c43)cc(OC)c1O (stereo not given) [vitisin A] |
| 18.3 min | Oc1ccc(C2Oc3ccc(C=Cc4cc(O)cc5c4C(c4cc(O)cc(O)c4)C(c4ccc(O)cc4)O5)cc3C2c2cc(O)cc3c2C(c2cc(O)cc(O)c2)C(c2ccc(O)cc2)O3)cc1 (stereo not given) [vitisin B] |
| 3.97 min | O=c1[nH]c(=O)c2[nH]cnc2[nH]1 [xanthine] |
